For this assay, the system named is MV-4-11 cells. Put plainly: Gene expression microarray analysis (Affymetrix PrimeView) and GSEA. The assay is classed as cell-based, human. On the set-up: RFU PODN (11730768_x_at) / Fold change /veh PODN (11730768_x_at) / RFU LINC00158 (11744669_a_at) / Fold change /veh LINC00158 (11744669_a_at) / RFU DUSP10 (11751237_a_at) / Fold change /veh DUSP10 (11751237_a_at) / RFU ID3 (11757404_x_at) / Fold change /veh ID3 (11757404_x_at) / RFU PLEKHG5 (11737974_s_at) / Fold change /veh PLEKHG5 (11737974_s_at) / RFU LRRC4B (11730491_at) / Fold change /veh LRRC4B (11730491_at) / RFU GIMAP4 (11747438_a_at) / Fold change /veh GIMAP4 (11747438_a_at) / RFU KRT8 (11758183_x_at) / Fold change /veh KRT8 (11758183_x_at) / RFU CNN1 (11734310_a_at) / Fold change /veh CNN1 (11734310_a_at) / RFU VPS37D (11726825_at) / Fold change /veh VPS37D (11726825_at) / RFU C10orf10 (11716522_x_at) / Fold change /veh C10orf10 (11716522_x_at) / RFU KIR2DL2 /// KIR2DL4 /// KIR2DL5A /// KIR2DL5B /// KIR2DS1 /// KIR2DS2 /// KIR2DS3 /// KIR2DS4 /// KIR3DL3 /// KIR3DL3 /// KIR3DS1 (11738374_at) / Fold change /veh KIR2DL2 /// KIR2DL4 /// KIR2DL5A /// KIR2DL5B /// KIR2DS1 /// KIR2DS2 /// KIR2DS3 /// KIR2DS4 /// KIR3DL3 /// KIR3DL3 /// KIR3DS1 (11738374_at) / RFU C1QL1 (11718748_at) / Fold change /veh C1QL1 (11718748_at) / RFU TMPRSS4 (11747572_a_at) / Fold change /veh TMPRSS4 (11747572_a_at) / RFU HAMP (11756126_x_at) / Fold change /veh HAMP (11756126_x_at) / RFU RNFT2 (11725882_a_at) / Fold change /veh RNFT2 (11725882_a_at) / RFU NR4A2 (11747474_a_at) / Fold change /veh NR4A2 (11747474_a_at) / RFU ABCC12 (11746883_a_at) / Fold change /veh ABCC12 (11746883_a_at) / RFU TMEM136 (11760407_x_at) / Fold change /veh TMEM136 (11760407_x_at) / RFU CLDN22 /// WWC2 (11732394_at) / Fold change /veh CLDN22 /// WWC2 (11732394_at) / RFU HLA-DPB1 (11760878_x_at) / Fold change /veh HLA-DPB1 (11760878_x_at) / RFU SPINT1 (11716480_a_at) / Fold change /veh SPINT1 (11716480_a_at) / RFU GAP43 (11754022_s_at) / Fold change /veh GAP43 (11754022_s_at) / RFU A4GNT (11735810_at) / Fold change /veh A4GNT (11735810_at) / RFU PRB3 (11715151_x_at) / Fold change /veh PRB3 (11715151_x_at) / RFU TUBB4B (11761932_at) / Fold change /veh TUBB4B (11761932_at) / RFU CAPN14 (11732068_a_at) / Fold change /veh CAPN14 (11732068_a_at) / RFU TMCC2 (11721928_a_at) / Fold change /veh TMCC2 (11721928_a_at) / RFU IRGQ (11745062_a_at) / Fold change /veh IRGQ (11745062_a_at) / RFU FAM174B (11720279_a_at) / Fold change /veh FAM174B (11720279_a_at) / RFU TMPRSS4 (11748680_a_at) / Fold change /veh TMPRSS4 (11748680_a_at) / RFU FAM212B (11763350_a_at) / Fold change /veh FAM212B (11763350_a_at) / RFU PLEKHG5 (11743358_a_at) / Fold change /veh PLEKHG5 (11743358_a_at) / RFU ZSCAN30 (11745921_a_at) / Fold change /veh ZSCAN30 (11745921_a_at) / RFU CMKLR1 (11741424_a_at) / Fold change /veh CMKLR1 (11741424_a_at) / RFU LOC101060620 /// MAPK8IP1 (11723275_at) / Fold change /veh LOC101060620 /// MAPK8IP1 (11723275_at) / RFU SPTSSB (11747773_x_at) / Fold change /veh SPTSSB (11747773_x_at) / RFU PRSS12 (11739890_at) / Fold change /veh PRSS12 (11739890_at) / RFU BIN1 (11741810_x_at) / Fold change /veh BIN1 (11741810_x_at) / RFU WNT11 (11732464_a_at) / Fold change /veh WNT11 (11732464_a_at) / RFU C10orf10 (11716521_a_at) / Fold change /veh C10orf10 (11716521_a_at) / RFU C5orf56 (11738089_at) / Fold change /veh C5orf56 (11738089_at) / RFU CYB561 (11721691_x_at) / Fold change /veh CYB561 (11721691_x_at) / RFU ANKRD19P (11752326_a_at) / Fold change /veh ANKRD19P (11752326_a_at) / RFU OR2T12 /// OR2T33 /// OR2T8 (11738714_s_at) / Fold change /veh OR2T12 /// OR2T33 /// OR2T8 (11738714_s_at) / RFU VCAN (11748164_a_at) / Fold change /veh VCAN (11748164_a_at) / RFU JSRP1 (11732532_at) / Fold change /veh JSRP1 (11732532_at) / RFU KRTAP10-11 (11738290_x_at) / Fold change /veh KRTAP10-11 (11738290_x_at) / RFU MYO3A (11730013_a_at) / Fold change /veh MYO3A (11730013_a_at) / RFU EBF3 (11725865_a_at) / Fold change /veh EBF3 (11725865_a_at) / RFU CAMK2N1 (11719241_x_at) / Fold change /veh CAMK2N1 (11719241_x_at) / RFU C5orf56 (11738088_a_at) / Fold change /veh C5orf56 (11738088_a_at) / RFU OLFML3 (11715873_a_at) / Fold change /veh OLFML3 (11715873_a_at) / RFU LOC100653217 /// NTM (11731650_a_at) / Fold change /veh LOC100653217 /// NTM (11731650_a_at) / RFU MAPK11 (11762145_a_at) / Fold change /veh MAPK11 (11762145_a_at) / RFU FIZ1 (11724087_x_at) / Fold change /veh FIZ1 (11724087_x_at) / RFU OASL (11726364_x_at) / Fold change /veh OASL (11726364_x_at) / RFU SOX15 (11748057_x_at) / Fold change /veh SOX15 (11748057_x_at) / RFU CD79A (11719716_a_at) / Fold change /veh CD79A (11719716_a_at) / RFU HIST1H1D (11736915_at) / Fold change /veh HIST1H1D (11736915_at) / RFU CASKIN2 (11723855_a_at) / Fold change /veh CASKIN2 (11723855_a_at) / RFU LOC730098 (11760151_x_at) / Fold change /veh LOC730098 (11760151_x_at) / RFU OR4N2 (11742367_at) / Fold change /veh OR4N2 (11742367_at) / RFU PRRT2 (11749266_a_at) / Fold change /veh PRRT2 (11749266_a_at) / RFU SNX32 (11753110_a_at) / Fold change /veh SNX32 (11753110_a_at) / RFU CDHR5 (11726645_a_at) / Fold change /veh CDHR5 (11726645_a_at) / RFU RCAN1 (11760418_a_at) / Fold change /veh RCAN1 (11760418_a_at) / RFU FAM167A (11723789_a_at) / Fold change /veh FAM167A (11723789_a_at) / RFU FAM26E (11764081_at) / Fold change /veh FAM26E (11764081_at) / RFU ISYNA1 (11749810_s_at) / Fold change /veh ISYNA1 (11749810_s_at) / RFU ACY1 (11761880_at) / Fold change /veh ACY1 (11761880_at) / RFU 11764098_at / Fold change /veh 11764098_at / RFU SAMD14 (11745864_x_at) / Fold change /veh SAMD14 (11745864_x_at) / RFU NPB (11741838_a_at) / Fold change /veh NPB (11741838_a_at) / RFU TMPRSS6 (11731388_a_at) / Fold change /veh TMPRSS6 (11731388_a_at) / RFU KRTAP10-2 (11738614_at) / Fold change /veh KRTAP10-2 (11738614_at) / RFU ARHGAP8 /// PRR5-ARHGAP8 (11727945_x_at) / Fold change /veh ARHGAP8 /// PRR5-ARHGAP8 (11727945_x_at) / RFU KRTAP5-7 /// NADSYN1 (11734609_at) / Fold change /veh KRTAP5-7 /// NADSYN1 (11734609_at) / RFU RASL12 (11751679_a_at) / Fold change /veh RASL12 (11751679_a_at) / RFU CDKN2B (11736163_a_at) / Fold change /veh CDKN2B (11736163_a_at) / RFU PRF1 (11729649_at) / Fold change /veh PRF1 (11729649_at) / RFU, ZNF638 /// ZNF638-IT1 / Fold change vs veh, ZNF638 /// ZNF638-IT1 / RFU, PANK3 / Fold change vs veh, PANK3 / RFU, SH3YL1 / Fold change vs veh, SH3YL1 / RFU, ZEB2 / Fold change vs veh, ZEB2 / RFU, NRIP1 / Fold change vs veh, NRIP1 / RFU, PTTG1IP / Fold change vs veh, PTTG1IP / RFU, CAPN2 / Fold change vs veh, CAPN2 / RFU, MED14 / Fold change vs veh, MED14 / RFU, SNORA58 / Fold change vs veh, SNORA58 / RFU, C1orf63 / Fold change vs veh, C1orf63 / RFU, LRRFIP1 / Fold change vs veh, LRRFIP1 / RFU, NDUFAF7 / Fold change vs veh, NDUFAF7 / RFU, SLC12A2 / Fold change vs veh, SLC12A2 / RFU, IBTK / Fold change vs veh, IBTK / RFU, ESF1 / Fold change vs veh, ESF1 / Fold change vs veh, TMEM50B / RFU, TAOK1 / Fold change vs veh, TAOK1 / RFU, ACBD3 / Fold change vs veh, ACBD3 / RFU, TMA16 / Fold change vs veh, TMA16 / RFU, RWDD3 / Fold change vs veh, RWDD3 / RFU, BCAT1 / Fold change vs veh, BCAT1 / RFU, EDEM3 / Fold change vs veh, EDEM3 / RFU, TMEM33 / Fold change vs veh, TMEM33 / RFU, WDR75 / Fold change vs veh, WDR75 / RFU, AHCTF1 / Fold change vs veh, AHCTF1 / RFU, TFRC / Fold change vs veh, TFRC / RFU, ZDHHC17 / Fold change vs veh, ZDHHC17 / RFU, NOM1 / Fold change vs veh, NOM1 / RFU, ARL8B / Fold change vs veh, ARL8B / RFU, ZBTB11 / Fold change vs veh, ZBTB11 / RFU, TAMM41 / Fold change vs veh, TAMM41 / RFU, KIAA1704 /// LOC100996395 / Fold change vs veh, KIAA1704 /// LOC100996395 / RFU, ING1 / Fold change vs veh, ING1 / RFU, TRMT61B / Fold change vs veh, TRMT61B / RFU, FUBP3 / Fold change vs veh, FUBP3 / RFU, TP53 / Fold change vs veh, TP53 / RFU, TNKS2 / Fold change vs veh, TNKS2 / RFU, ZFP14 / Fold change vs veh, ZFP14 / RFU, ACTR2 / Fold change vs veh, ACTR2 / RFU, PPP3R1 / Fold change vs veh, PPP3R1 / RFU, PIK3R1 / Fold change vs veh, PIK3R1 / RFU, HNRNPA1 / Fold change vs veh, HNRNPA1 / RFU, RNF170 / Fold change vs veh, RNF170 / RFU, ZNF28 / Fold change vs veh, ZNF28 / RFU, RNGTT / Fold change vs veh, RNGTT / RFU, OGT / Fold change vs veh, OGT / RFU, BRD1 / Fold change vs veh, BRD1 / RFU, MARS / Fold change vs veh, MARS / RFU, ZNF655 / Fold change vs veh, ZNF655 / RFU, FAHD1 / Fold change vs veh, FAHD1 / RFU, BDP1 / Fold change vs veh, BDP1 / RFU, LRRCC1 / Fold change vs veh, LRRCC1 / RFU, ARID1A / Fold change vs veh, ARID1A / RFU, ZNF146 / Fold change vs veh, ZNF146 / RFU, ZNF330 / Fold change vs veh, ZNF330 / RFU, GPN3 / Fold change vs veh, GPN3 / RFU, C9orf123 / Fold change vs veh, C9orf123 / RFU, N4BP2L2 / Fold change vs veh, N4BP2L2 / RFU, ARFIP1 / Fold change vs veh, ARFIP1 / RFU, FAM179B / Fold change vs veh, FAM179B / RFU, BCL10 / Fold change vs veh, BCL10 / RFU, UHRF1BP1L / Fold change vs veh, UHRF1BP1L / RFU, BET1 / Fold change vs veh, BET1 / RFU, CNOT2 / Fold change vs veh, CNOT2 / RFU, ZNF268 / Fold change vs veh, ZNF268 / Fold change vs veh, ZNF507 / RFU, DGCR2 / Fold change vs veh, DGCR2 / RFU, WDSUB1 / Fold change vs veh, WDSUB1 / Fold change vs veh, HSP90B1 /// MIR3652 / RFU, ADSS / Fold change vs veh, ADSS / RFU, GK / Fold change vs veh, GK / RFU, ZNF148 / Fold change vs veh, ZNF148 / RFU, TAF9 / Fold change vs veh, TAF9 / RFU, SLC1A5 / Fold change vs veh, SLC1A5 / RFU, SLMO2 / Fold change vs veh, SLMO2 / RFU, ABCC4 / Fold change vs veh, ABCC4 / RFU, LOC101060439 /// RAP1B / Fold change vs veh, LOC101060439 /// RAP1B / RFU, RFX7 / Fold change vs veh, RFX7 / RFU, GTPBP10 / Fold change vs veh, GTPBP10 / RFU, CNEP1R1 / Fold change vs veh, CNEP1R1 / RFU, BIVM-ERCC5 /// ERCC5 / Fold change vs veh, BIVM-ERCC5 /// ERCC5 / RFU, ILF3 / Fold change vs veh, ILF3 / RFU 11762660_at / Fold change /veh 11762660_at / RFU VCAN (11757783_s_at) / Fold change /veh VCAN (11757783_s_at) / RFU DDX43 (11728927_at) / Fold change /veh DDX43 (11728927_at) / RFU KRT8 (11758188_x_at) / Fold change /veh KRT8 (11758188_x_at) / RFU NKD1 (11759106_at) / Fold change /veh NKD1 (11759106_at) / RFU SRD5A1 (11742802_a_at) / Fold change /veh SRD5A1 (11742802_a_at) / RFU TPSAB1 /// TPSB2 (11721975_s_at) / Fold change /veh TPSAB1 /// TPSB2 (11721975_s_at) / RFU GSTM3 (11746129_a_at) / Fold change /veh GSTM3 (11746129_a_at) / RFU IL23R (11737362_x_at) / Fold change /veh IL23R (11737362_x_at) / RFU TMEM51 (11727254_a_at) / Fold change /veh TMEM51 (11727254_a_at) / RFU PIWIL2 (11732686_x_at) / Fold change /veh PIWIL2 (11732686_x_at) / RFU ORM1 (11744905_x_at) / Fold change /veh ORM1 (11744905_x_at) / RFU CCDC152 (11743942_at) / Fold change /veh CCDC152 (11743942_at) / RFU ECM1 (11717891_a_at) / Fold change /veh ECM1 (11717891_a_at) / RFU IL23R (11748794_a_at) / Fold change /veh IL23R (11748794_a_at) / RFU TNFAIP8L3 (11732012_x_at) / Fold change /veh TNFAIP8L3 (11732012_x_at) / RFU MBOAT4 (11741988_at) / Fold change /veh MBOAT4 (11741988_at) / RFU 11764193_at / Fold change /veh 11764193_at / RFU TMEM53 (11763286_at) / Fold change /veh TMEM53 (11763286_at) / RFU MAGEB2 (11727129_at) / Fold change /veh MAGEB2 (11727129_at) / RFU TMEM200A (11744735_a_at) / Fold change /veh TMEM200A (11744735_a_at) / RFU CCDC152 (11751479_a_at) / Fold change /veh CCDC152 (11751479_a_at) / RFU FAM211A (11726209_a_at) / Fold change /veh FAM211A (11726209_a_at) / RFU RGS16 (11746705_a_at) / Fold change /veh RGS16 (11746705_a_at) / RFU VCAN (11755009_s_at) / Fold change /veh VCAN (11755009_s_at) / RFU RHOB (11743442_s_at) / Fold change /veh RHOB (11743442_s_at) / RFU RGS16 (11720943_a_at) / Fold change /veh RGS16 (11720943_a_at) / RFU RGS16 (11720944_at) / Fold change /veh RGS16 (11720944_at) / RFU, VPS4B / Fold change vs veh, VPS4B / RFU, CREB1 / Fold change vs veh, CREB1 / RFU, DNAJC13 / Fold change vs veh, DNAJC13 / RFU, GNAQ / Fold change vs veh, GNAQ / RFU, CDK5R1 / Fold change vs veh, CDK5R1 / RFU, ZRANB3 / Fold change vs veh, ZRANB3 / RFU, CUL4A / Fold change vs veh, CUL4A / RFU, CCNY / Fold change vs veh, CCNY / RFU, UFL1 / Fold change vs veh, UFL1 / RFU, COG3 / Fold change vs veh, COG3 / RFU, DIAPH2 / Fold change vs veh, DIAPH2 / RFU, SKA2 / Fold change vs veh, SKA2 / RFU, AFF3 / Fold change vs veh, AFF3 / RFU, LMF1 / Fold change vs veh, LMF1 / RFU, IPO11 / Fold change vs veh, IPO11 / RFU, DFFB / Fold change vs veh, DFFB / RFU, FOXP1 / Fold change vs veh, FOXP1 / RFU, CARD8 / Fold change vs veh, CARD8 / RFU, STRN3 / Fold change vs veh, STRN3 / RFU, ADK / Fold change vs veh, ADK / RFU, RASSF2 / Fold change vs veh, RASSF2 / RFU, WIPF1 / Fold change vs veh, WIPF1 / RFU, LARP1B / Fold change vs veh, LARP1B / RFU, RASA1 / Fold change vs veh, RASA1 / RFU, RB1 / Fold change vs veh, RB1 / RFU, PPFIA1 / Fold change vs veh, PPFIA1 / RFU, MAT2A / Fold change vs veh, MAT2A / RFU, CCT5 / Fold change vs veh, CCT5 / RFU, WDR92 / Fold change vs veh, WDR92 / RFU, CUX1 / Fold change vs veh, CUX1 / RFU, TTC7A / Fold change vs veh, TTC7A / RFU, TMEM135 / Fold change vs veh, TMEM135 / RFU, DEPTOR / Fold change vs veh, DEPTOR / RFU, CPM / Fold change vs veh, CPM / RFU, DNAJB6 / Fold change vs veh, DNAJB6 / RFU, CACNA2D3 / Fold change vs veh, CACNA2D3 / RFU, DTX4 / Fold change vs veh, DTX4 / RFU, TFCP2 / Fold change vs veh, TFCP2 / RFU, GMCL1 /// GMCL1P1 / Fold change vs veh, GMCL1 /// GMCL1P1 / RFU, AEBP2 / Fold change vs veh, AEBP2 / RFU, SNHG1 /// SNORD22 /// SNORD25 /// SNORD26 /// SNORD27 /// SNORD28 /// SNORD29 /// SNORD31 / Fold change vs veh, SNHG1 /// SNORD22 /// SNORD25 /// SNORD26 /// SNORD27 /// SNORD28 /// SNORD29 /// SNORD31 / Fold change (Aza/veh), C12orf56 (ProbeSet 11735607_a_at) / Fold change (ACY-1035/veh), C12orf56 (ProbeSet 11735607_a_at) / Fold change (Aza/veh), FGFR1OP (ProbeSet 11751329_s_at) / Fold change (ACY-1035/veh), FGFR1OP (ProbeSet 11751329_s_at) / Fold change (Aza/veh), VPS36 (ProbeSet 11739960_a_at) / Fold change (ACY-1035/veh), VPS36 (ProbeSet 11739960_a_at) / RFU SYPL1 (11715823_x_at) / Fold change /veh SYPL1 (11715823_x_at) / RFU IGFBP7 (11715501_s_at) / Fold change /veh IGFBP7 (11715501_s_at) / RFU REEP3 (11722064_at) / Fold change /veh REEP3 (11722064_at) / RFU IGLL1 (11728026_x_at) / Fold change /veh IGLL1 (11728026_x_at): dose or concentration left out as unconfirmed. Conditions: MV-4-11 cells, 48 hours.

The values below come from paper PMC5218480 (PLoS ONE, 2017).

On to `Nc1ncn([C@@H]2O[C@H](CO)[C@@H](O)[C@H]2O)c(=O)n1` [azacitidine], for which the “Fold change /veh TMEM200A (11744735_a_at)” value amounted to 1.56.
